Data reported in US20210045385A1, “PYRIDAZINONE-SUBSTITUTED KETOXIMES AS HERBICIDES” (FMC Corporation, priority 2018, published 2021).

Assays:
Assay type in all cases: in vivo
[1] = tested on: Italian ryegrass (Lolium multiflorum); assay: Test A postemergence, visual plant response rating; conditions: for Ryegrass, Italian plant response rating: 125 g ai/ha, 0 to 100 scale (0 no effect, 100 complete control)
Summary of the method: (§1)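 Greenhouse evaluation, approx. 10 days post-spray. Soil: loam + sand. Postemergence stage: 1–2 leaves, height 2–10 cm. Vehicle: non-phytotoxic solvent blend with surfactant. Score: visual injury on a 0 (no effect) to 100 (complete control) scale.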

[2] = tested on: barnyardgrass (Echinochloa crus-galli); assay: Test A postemergence, visual plant response rating; conditions: for Barnyardgrass plant response rating (0 to 100 scale): 500 g ai/ha, postemergence, 0 is no effect, 100 is complete control; for Barnyardgrass plant response rating: Postemergence, 125 g ai/ha, 0 to 100 scale (0 no effect, 100 complete control)
Summary of the method: as §1

[3] = tested on: pigweed (Amaranthus retroflexus); assay: Test A postemergence, visual plant response rating; conditions: for Pigweed plant response rating (0 to 100 scale): 500 g ai/ha, postemergence, 0 is no effect, 100 is complete control; for Pigweed plant response rating: Postemergence, 125 g ai/ha, 0 to 100 scale (0 no effect, 100 complete control)
Summary of the method: as §1

[4] = tested on: blackgrass (Alopecurus myosuroides); assay: Test A postemergence, visual plant response rating; conditions: for Blackgrass plant response rating (0 to 100 scale): 500 g ai/ha, postemergence, 0 is no effect, 100 is complete control; for Blackgrass plant response rating: Postemergence, 125 g ai/ha, 0 to 100 scale (0 no effect, 100 complete control)
Summary of the method: as §1

[5] = tested on: wheat (Triticum aestivum); assay: Test A postemergence, visual plant response rating; conditions: for Wheat plant response rating: 125 g ai/ha, 0 to 100 scale (0 no effect, 100 complete control)
Summary of the method: as §1

[6] = tested on: foxtail, giant (giant foxtail, Setaria faberii); assay: Test A postemergence, visual plant response rating; conditions: for Foxtail, Giant plant response rating (0 to 100 scale): 500 g ai/ha, postemergence, 0 is no effect, 100 is complete control; for Foxtail, Giant plant response rating: Postemergence, 125 g ai/ha, 0 to 100 scale (0 no effect, 100 complete control)
Summary of the method: as §1

corn (Zea mays) = assay: Test A postemergence, visual plant response rating; conditions: for Corn plant response rating (0 to 100 scale): 500 g ai/ha, postemergence, 0 is no effect, 100 is complete control; for Corn plant response rating: Postemergence, 125 g ai/ha, 0 to 100 scale (0 no effect, 100 complete control)
Summary of the method: as §1

[7] = tested on: ragweed (common ragweed, Ambrosia elatior); assay: Test A postemergence, visual plant response rating; conditions: for Ragweed plant response rating (0 to 100 scale): 500 g ai/ha, postemergence, 0 is no effect, 100 is complete control; for Ragweed plant response rating: Postemergence, 125 g ai/ha, 0 to 100 scale (0 no effect, 100 complete control)
Summary of the method: as §1

kochia (Kochia scoparia) [8] = assay: Test A postemergence, visual plant response rating; conditions: for Kochia plant response rating (0 to 100 scale): 500 g ai/ha, postemergence, 0 is no effect, 100 is complete control; for Kochia plant response rating: Postemergence, 125 g ai/ha, 0 to 100 scale (0 no effect, 100 complete control)
Summary of the method: as §1

[9] = tested on: galium (catchweed bedstraw, Galium aparine); assay: Test A postemergence, visual plant response rating; conditions: for Galium plant response rating (0 to 100 scale): 500 g ai/ha, postemergence, 0 is no effect, 100 is complete control; for Galium plant response rating: Postemergence, 125 g ai/ha, 0 to 100 scale (0 no effect, 100 complete control)
Summary of the method: as §1

rice (Oryza sativa) = assay: Test B flooded paddy test, visual plant response rating; conditions: 250 g ai/ha, Flood, applied to paddy water, 2-leaf stage, evaluated after 13 to 15 days
Summary of the method: (§2)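 Seedlings at 2 leaves; compound into paddy water (3 cm flood, maintained); 13–15 d greenhouse; visual score relative to controls.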

[10] = tested on: ducksalad (Heteranhera limosa); assay: as above; conditions: 250 g ai/ha, Flood, applied to paddy water, 2-leaf stage, evaluated after 13 to 15 days
Summary of the method: as §2

[11] = tested on: barnyardgrass (Echinochloa crus-galli); assay: as above; conditions: 250 g ai/ha, Flood, applied to paddy water, 2-leaf stage, evaluated after 13 to 15 days
Summary of the method: as §2

[12] = tested on: sedge, umbrella (small-flower umbrella sedge, Cyperus difformis); assay: as above; conditions: 250 g ai/ha, Flood, applied to paddy water, 2-leaf stage, evaluated after 13 to 15 days
Summary of the method: as §2

[13] = tested on: Italian ryegrass (Lolium multiflorum); assay: Test A preemergence, visual plant response rating; conditions: for Ryegrass, Italian plant response rating: 125 g ai/ha, preemergence, 0 to 100 scale, 0 no effect, 100 complete control; for Ryegrass, Italian plant response rating (0 to 100 scale): 500 g ai/ha Preemergence, approx. 10 days
Summary of the method: as §1

[14] = tested on: barnyardgrass (Echinochloa crus-galli); assay: Test A preemergence, visual plant response rating; conditions: for Barnyardgrass plant response rating: 125 g ai/ha, preemergence, 0 to 100 scale, 0 no effect, 100 complete control; for Barnyardgrass plant response rating (0 to 100 scale): 500 g ai/ha Preemergence, approx. 10 days
Summary of the method: as §1

[15] = tested on: pigweed (Amaranthus retroflexus); assay: Test A preemergence, visual plant response rating; conditions: for Pigweed plant response rating: 125 g ai/ha, preemergence, 0 to 100 scale, 0 no effect, 100 complete control; for Pigweed plant response rating (0 to 100 scale): 500 g ai/ha Preemergence, approx. 10 days
Summary of the method: as §1

[16] = tested on: foxtail, giant (giant foxtail, Setaria faberii); assay: Test A preemergence, visual plant response rating; conditions: for Foxtail, Giant plant response rating: 125 g ai/ha, preemergence, 0 to 100 scale, 0 no effect, 100 complete control; for Foxtail, Giant plant response rating (0 to 100 scale): 500 g ai/ha Preemergence, approx. 10 days
Summary of the method: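 Greenhouse pot test in loam–sand soil mix: compound in a surfactant-containing non-phytotoxic solvent applied preemergence (directed soil spray) or postemergence (one- to two-leaf plants, 2–10 cm). Injury scored visually after ~10 days, 0–100.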

[17] = tested on: ragweed (common ragweed, Ambrosia elatior); assay: Test A preemergence, visual plant response rating; conditions: for Ragweed plant response rating (0 to 100 scale): 500 g ai/ha Preemergence, approx. 10 days; for Ragweed plant response rating: 125 g ai/ha, preemergence, 0 to 100 scale, 0 no effect, 100 complete control
Summary of the method: as §1

kochia (Kochia scoparia) [18] = assay: Test A preemergence, visual plant response rating; conditions: for Kochia plant response rating: 125 g ai/ha, preemergence, 0 to 100 scale, 0 no effect, 100 complete control; for Kochia plant response rating (0 to 100 scale): 500 g ai/ha Preemergence, approx. 10 days
Summary of the method: as §1

[19] = 500 g ai/ha, postemergence, 0 is no effect, 100 is complete control

| Compound | Ryegrass, Italian plant response rating (0 to 100 scale) [1, 19] | Barnyardgrass plant response rating (0 to 100 scale) [2] | Barnyardgrass plant response rating [2] | Pigweed plant response rating (0 to 100 scale) [3] | Pigweed plant response rating [3] | Blackgrass plant response rating (0 to 100 scale) [4] | Blackgrass plant response rating [4] | Wheat plant response rating (0 to 100 scale) [5, 19] | Foxtail, Giant plant response rating (0 to 100 scale) [6] | Foxtail, Giant plant response rating [6] | Corn plant response rating (0 to 100 scale) (corn (Zea mays)) | Corn plant response rating (corn (Zea mays)) | Ragweed plant response rating (0 to 100 scale) [7] | Ragweed plant response rating [7] | Kochia plant response rating (0 to 100 scale) (kochia (Kochia scoparia) [8]) | Kochia plant response rating (kochia (Kochia scoparia) [8]) | Galium plant response rating (0 to 100 scale) [9] | Galium plant response rating [9] | Plant response rating, Rice (0 to 100 scale, 0 is no effect, 100 is complete control) (rice (Oryza sativa)) | Plant response rating, Ducksalad (0 to 100 scale, 0 is no effect, 100 is complete control) [10] | other results |
| --- | --- | --- | --- | --- | --- | --- | --- | --- | --- | --- | --- | --- | --- | --- | --- | --- | --- | --- | --- | --- | --- |
| CON=C(c1sccc1C)c1c(O)c(C)nn(C)c1=O [Compound 134] | 80 | 20 | 10 | 80 | 40 | 10 | 0 | 0 | 20 | 10 | 0 | 0 | 70 | 60 | 70 | 20 | 60 | 60 | 0 | 0 | Ryegrass, Italian plant response rating ([1]; Postemergence): 20; Wheat plant response rating ([5]; Postemergence): 0; Plant response rating, Barnyardgrass (0 to 100 scale, 0 is no effect, 100 is complete control) [11]: 0; Plant response rating, Sedge, Umbrella (0 to 100 scale, 0 is no effect, 100 is complete control) [12]: 0; Ryegrass, Italian plant response rating [13]: 10; Ryegrass, Italian plant response rating (0 to 100 scale) [13]: 30; Barnyardgrass plant response rating [14]: 0; Barnyardgrass plant response rating (0 to 100 scale) [14]: 10; Pigweed plant response rating [15]: 20; Pigweed plant response rating (0 to 100 scale) [15]: 60; Foxtail, Giant plant response rating [16]: 0; Foxtail, Giant plant response rating (0 to 100 scale) [16]: 10; Ragweed plant response rating (0 to 100 scale) [17]: 70; Kochia plant response rating (kochia (Kochia scoparia) [18]): 10; Kochia plant response rating (0 to 100 scale) (kochia (Kochia scoparia) [18]): 50 |
| CO/N=C(/c1ccsc1C)c1c(O)c(C)nn(C)c1=O [Compound 135] | 30 | 0 | 0 | 30 | 20 | 0 | 0 | 0 | 0 | 0 | 0 | 0 | 20 | 0 | 10 | 0 | 40 | 30 | 0 | 0 | Ryegrass, Italian plant response rating ([1]; Postemergence): 0; Wheat plant response rating ([5]; Postemergence): 0; Plant response rating, Barnyardgrass (0 to 100 scale, 0 is no effect, 100 is complete control) [11]: 0; Plant response rating, Sedge, Umbrella (0 to 100 scale, 0 is no effect, 100 is complete control) [12]: 0; Ryegrass, Italian plant response rating [13]: 0; Ryegrass, Italian plant response rating (0 to 100 scale) [13]: 0; Barnyardgrass plant response rating [14]: 0; Barnyardgrass plant response rating (0 to 100 scale) [14]: 0; Pigweed plant response rating [15]: 0; Pigweed plant response rating (0 to 100 scale) [15]: 20; Foxtail, Giant plant response rating [16]: 0; Foxtail, Giant plant response rating (0 to 100 scale) [16]: 0; Ragweed plant response rating [17]: 0; Ragweed plant response rating (0 to 100 scale) [17]: 10; Kochia plant response rating (kochia (Kochia scoparia) [18]): 0; Kochia plant response rating (0 to 100 scale) (kochia (Kochia scoparia) [18]): 10 |
| CO/N=C(/c1cscc1C)c1c(O)c(C)nn(C)c1=O [Compound 140] | 60 | 20 | 0 | 90 | 80 | 0 | 0 | 0 | 30 | 10 | 20 | 10 | 70 | 50 | 60 | 20 | 70 | 70 | 0 | 0 | Ryegrass, Italian plant response rating (0 to 100 scale) ([1]; Postemergence, rate not given, approx. 10 days): 10; Wheat plant response rating (0 to 100 scale) ([5]; Postemergence, approx. 10 days): 0; Plant response rating, Barnyardgrass (0 to 100 scale, 0 is no effect, 100 is complete control) [11]: 0; Plant response rating, Sedge, Umbrella (0 to 100 scale, 0 is no effect, 100 is complete control) [12]: 0; Ryegrass, Italian plant response rating [13]: 20; Ryegrass, Italian plant response rating (0 to 100 scale) [13]: 50; Barnyardgrass plant response rating [14]: 0; Barnyardgrass plant response rating (0 to 100 scale) [14]: 0; Pigweed plant response rating [15]: 0; Pigweed plant response rating (0 to 100 scale) [15]: 90; Foxtail, Giant plant response rating [16]: 0; Foxtail, Giant plant response rating (0 to 100 scale) [16]: 10; Ragweed plant response rating [17]: 10; Ragweed plant response rating (0 to 100 scale) [17]: 50; Kochia plant response rating (kochia (Kochia scoparia) [18]): 0; Kochia plant response rating (0 to 100 scale) (kochia (Kochia scoparia) [18]): 0 |
